Measured values reported in PubChem BioAssay (NCI).
Where “and” joins values, the source holds several entries; their conditions need not be identical. Equal values may be shown once.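 In this assay, cells in 96-well plates receive the compound at five concentrations for 48 hours. Endpoints are linearly interpolated between the surrounding concentrations. GI50 = concentration required for 50% inhibition of growth. TGI denotes the concentration required for complete inhibition of growth.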

What follows are compounds tested on MDA-MB-468 breast (assay: NCI-60 cell line screen, 48 h).
With `COC(=O)[C@H](Cc1ccccc1)NC(=O)c1csc([C@@H](C[C@H](C(C)C)N(C)C(=O)[C@@H](NC(=O)[C@H]2CCCN2C)C2CC2)OC(C)=O)n1` the GI50 was 0.153 µM and the TGI was greater than 33.3 µM.
Work on `Cc1n(Cc2ccc3ccccc3c2)c(Cl)c(Cl)[n+]1Cc1ccc2ccccc2c1` yielded a GI50 of 1.09 µM and a TGI of 2.92 µM.
With `Nc1ncnc2c1c(-c1ccc(Oc3ccccc3)cc1)nn2C[C@@H]1SSC[C@@H]1O` the GI50 was 0.4 µM and the TGI was 2.19 µM.
Work on `CCNC(=O)Oc1ccc(/C(=C(/C)c2ccc(OC)cc2)c2ccc(OCCN3CCCCCC3)cc2)cc1` yielded a GI50 of 2.05 µM and a TGI of 8.09 µM.
For `O=C(CCN1CCCC1)Nc1ccc2c(Nc3ccccc3)c3ccccc3nc2c1`, the GI50 was 0.182 µM and the TGI was 1.6 µM.
For `COc1ccc(C(=O)C[C@]2(O)C(=O)Nc3c(Cl)ccc(Cl)c32)cc1`, the GI50 was 0.395 µM and the TGI was greater than 67.1 µM.
`Nc1ccn([C@@H]2C(F)=C(CO)[C@@H](O)[C@H]2O)c(=O)n1` showed a GI50 of 31.2 µM and a TGI greater than 100 µM.
`COc1ccccc1/C=C\C(=O)c1ccccc1` showed a GI50 of 3.97 µM and a TGI of 19.1 µM.
For `COc1ccc(-c2cc(/C=C/C(=O)c3cc(OC)c(OC)c(OC)c3)[nH]n2)cc1OC`, the GI50 was 1.33 µM and the TGI was 3.27 µM.
`CN(C)CCCC1(c2ccc(F)cc2)OCc2cc(-c3cncc4ccccc34)ccc21` (configuration not stated) was tested, and the GI50 was 1.55 µM and the TGI was 3.19 µM.
`O=C(/C=C/c1cn(-c2ccccc2)nc1-c1ccc([N+](=O)[O-])cc1)c1ccc(Cl)cc1` gave a GI50 of 2.91 µM and a TGI greater than 100 µM.
Compound `CCC(=O)c1cc([N+](=O)[O-])c(Br)s1` has a GI50 of 1.92 µM and a TGI of 3.69 µM.
In the case of `O=c1oc2ccc(F)cc2c(=O)n1-c1ccc(Br)cc1F`, the GI50 is reported as 1.53 µM and the TGI is reported as 5.49 µM.
In the case of `COc1ccc(NC(=O)c2sc3nc4c(cc3c2N)CCCC4)cc1`, the GI50 is reported as 0.481 µM and the TGI is reported as 96.4 µM.
`Oc1[nH]c2ccccc2c1/C=c1/cc2c(c(-c3ccc(C(F)(F)F)cc3)n1)=Nc1ccccc1-2` was tested, and the GI50 was 3.82 µM and the TGI was 16.1 µM.
In the case of `c1ccc(CC(NCCNC(Cc2ccccc2)c2ccccc2)c2ccccc2)cc1` (configuration not stated), the GI50 is reported as 0.255 µM and the TGI is reported as 0.745 µM.
`COc1cc(-n2cc(-c3cc(O)c(C/C=C(\C)CCC=C(C)C)c(O)c3)nn2)cc2c1O[C@]1(C)CC[C@@H](O)C(C)(C)[C@H]1C2` showed a GI50 of 0.88 µM and a TGI of 4.89 µM.
`Cn1cc(CO)c2ccccc21` gave a GI50 of 10.5 µM and a TGI of 48.7 µM.
With `CCc1cccc(CC)c1/C=C/c1cncc(C(=O)NC)c1` the GI50 was 4.03 µM and the TGI was 20.6 µM.
`C[C@@H]1C/C=C\C(=O)O[C@H](/C=C/C#C/C=C/C(C)(C)[C@@H](O)c2cccc(O)c2Br)[C@@H](C)/C=C/[C@H](C)C[C@H](OC(N)=O)C1` showed a GI50 of 0.0611 µM and a TGI of 17.8 µM.
For `COc1ccc2cc(-c3c(-c4ccncc4)nc(-c4ccc(S(C)=O)cc4C)n3C)ccc2c1` (configuration not stated), the GI50 was 9.07 µM and the TGI was greater than 25 µM.
With `COc1cc2cc(Oc3ccc(NC(=O)c4cccc5c4OCCO5)cc3)c(C)nc2cc1OC` the GI50 was 2.93 µM and the TGI was 48.7 µM.
`O=C(Cc1ccc(/C=C/C(=O)c2ncc[nH]2)cc1)Nc1ccc(C(F)(F)F)cc1` gave a GI50 of 1.77 µM and a TGI of 6.84 µM.
For `CC[C@H](C)[C@H](NC(=O)[C@H]1CCCCN1C)C(=O)N(C)[C@H](C[C@@H](OC(C)=O)c1nc(C(=O)N[C@@H](Cc2ccccc2)C[C@H](C)C(=O)OC)cs1)C(C)C`, the TGI was 4.45 µM.
`CN(C)CCCN1c2ccccc2Sc2ccc(Cl)cc21` was tested, and the GI50 was 1.67 µM and 1.81 µM and the TGI was 3.54 µM and 4.62 µM.
Compound `CCCn1cnc2c(SCc3ccccc3)nc(N)nc21` has a GI50 of 23.6 µM and a TGI greater than 100 µM.
In the case of `Cc1cc(=O)oc2cc(OCCn3c(C)nn(-c4ccc(Cl)cc4)c3=O)ccc12`, the GI50 is reported as 2.69 µM and the TGI is reported as 57.6 µM.
For `CN(C)C(=O)SC1=C(c2c(Cl)cccc2Cl)C(=O)c2ccccc21`, the GI50 was 1.97 µM and the TGI was 4.15 µM.
`Cc1cc(NC(=O)NC(=O)c2ccccc2N(C)C)ccc1Oc1ncc(Br)cn1` was tested, and the GI50 was 0.49 µM and the TGI was greater than 100 µM.
`O=C1C=C(N2CCN(c3ccccn3)CC2)C(=O)c2c(O)ccc(O)c21` gave a GI50 of 2.75 µM.
Compound `COc1ccc(-c2nc3c(c(=O)n2C(C)=O)C(c2ccc(Cl)cc2)c2sc4c(Cl)cccc4c2O3)cc1` (configuration not stated) has a GI50 of 0.234 µM and a TGI of 0.571 µM.
`COc1ccc2[nH]c(-c3ccccc3)cc2c1` showed a GI50 of 47 µM and a TGI greater than 100 µM.
